Data: patent US11634390B2, “Agricultural chemicals” (GLOBACHEM NV, priority 2016, dated 2023)

Key:
Type in all cases: in vivo
Echinochloa crus-galli = assay: Herbicidal screen, post-emergence spray of seedlings in pots: Barnyard grass; conditions: Echinochloa crus-galli, post-emergence, 240 h, assessed 10 days after treatment, read-out: percentage increase in necrosis relative to the control
Experimental: (§1) Compounds were screened at four concentrations (100, 50, 25 and 12.5 g/ha) against four weed species (Stellaria media—Chickweed; Abutilon theophrasti—velvetleaf; Amaranthus retroflexus—common amaranthus; Echinochloa crus-galli—Barnyard grass) and maize as a crop species. Seed were sown in 12.5 cm diameter pots (20 per pot for the weed species and 5 for maize). Seedlings were sprayed with 2 ml of compound two weeks after sowing, with 2 ml water used as the control. Each treatment was replicated three times. Plants were maintained at 20° C. and assessed 10 days after treatment. The assessment was based on the % plant in each pot showing growth. The data is presented in Table 1 in which d represents no detected effect at this concentration; c represents a percentage increase in necrosis relative to the control of 0.1-50; b represents a percentage increase in necrosis of 50-80; and a represents a percentage increase in necrosis of 80-100.

Amaranthus retroflexus = assay: Herbicidal screen, post-emergence spray of seedlings in pots: common amaranthus; conditions: Amaranthus retroflexus, post-emergence, 240 h, assessed 10 days after treatment, read-out: percentage increase in necrosis relative to the control
Experimental: as §1

four weed species = assay: Herbicidal screen, summary across the four weed species; conditions: summary in words, 12.5-100 g/ha
Experimental: as §1

Abutilon theophrasti = assay: Herbicidal screen, post-emergence spray of seedlings in pots: velvetleaf; conditions: Abutilon theophrasti, post-emergence, 240 h, assessed 10 days after treatment, read-out: percentage increase in necrosis relative to the control
Experimental: as §1

Stellaria media = assay: Herbicidal screen, post-emergence spray of seedlings in pots: Chickweed; conditions: Stellaria media, post-emergence, 240 h, assessed 10 days after treatment, read-out: percentage increase in necrosis relative to the control
Experimental: as §1

maize = assay: Herbicidal screen, post-emergence spray of seedlings in pots: crop species; conditions: Zea mays, post-emergence, 240 h, assessed 10 days after treatment, read-out: percentage increase in necrosis relative to the control
Experimental: as §1

Row | Compound | pest or weed control at 12.5 g/ha (Echinochloa crus-galli) [%] | pest or weed control at 25 g/ha (Echinochloa crus-galli) [%] | pest or weed control at 50 g/ha (Echinochloa crus-galli) [%] | pest or weed control at 100 g/ha (Echinochloa crus-galli) [%] | pest or weed control at 12.5 g/ha (Amaranthus retroflexus) [%] | pest or weed control at 25 g/ha (Amaranthus retroflexus) [%] | pest or weed control at 50 g/ha (Amaranthus retroflexus) [%] | pest or weed control at 100 g/ha (Amaranthus retroflexus) [%] | pest or weed control at 12.5 g/ha (Abutilon theophrasti) [%] | pest or weed control at 25 g/ha (Abutilon theophrasti) [%] | pest or weed control at 50 g/ha (Abutilon theophrasti) [%] | pest or weed control at 100 g/ha (Abutilon theophrasti) [%] | pest or weed control at 12.5 g/ha (Stellaria media) [%] | pest or weed control at 25 g/ha (Stellaria media) [%] | pest or weed control at 50 g/ha (Stellaria media) [%] | pest or weed control at 100 g/ha (Stellaria media) [%] | plant injury at 12.5 g/ha (maize) [%] | plant injury at 25 g/ha (maize) [%] | plant injury at 50 g/ha (maize) [%] | plant injury at 100 g/ha (maize) [%] | further results
1 | Cn1c(C(F)(F)F)cc(=O)n(-c2cc(C(=O)NS(=O)(=O)C3(C)CC3)c(Cl)cc2F)c1=O [Example 7, 2-Chloro-4-fluoro-5-(3-methyl-2,6-dioxo-4-(trifluoromethyl)-3,6-dihydropyrimidin-1(2H)-yl)-N-((1-methylcyclopropyl)sulfonyl)benzamide] | 0.1 to 50 | 0.1 to 50 | 50 to 80 | 80 to 100 | 80 to 100 | 80 to 100 | 80 to 100 | 80 to 100 | 0.1 to 50 | 80 to 100 | 80 to 100 | 80 to 100 | 0.1 to 50 | 50 to 80 | 50 to 80 | 80 to 100 | 0.1 to 50 | 0.1 to 50 | 0.1 to 50 | 50 to 80 | herbicidal activity against the weed species (four weed species): good activity across several of the weed species
2 | Cn1c(C(F)(F)F)cc(=O)n(-c2cc(C(=O)NS(=O)(=O)C3CCCCC3)c(Cl)cc2F)c1=O [Example 14, 2-Chloro-N-(cyclohexylsulfonyl)-4-fluoro-5-(3-methyl-2,6-dioxo-4-(trifluoromethyl)-3,6-dihydropyrimidin-1(2H)-yl)benzamide] | 0.1 to 50 | 0.1 to 50 | 0.1 to 50 | 0.1 to 50 | 80 to 100 | 80 to 100 | 80 to 100 | 80 to 100 | 50 to 80 | 50 to 80 | 80 to 100 | 80 to 100 | 0.1 to 50 | 0.1 to 50 | 50 to 80 | 80 to 100 | 0.1 to 50 | 0.1 to 50 | 0.1 to 50 | 0.1 to 50 | herbicidal activity against the weed species (four weed species): good activity across several of the weed species
3 | CN1CCC(S(=O)(=O)NC(=O)c2cc(-n3c(=O)cc(C(F)(F)F)n(C)c3=O)c(F)cc2Cl)C1.Cl (centres unmarked) [Example 5, 2-Chloro-4-fluoro-5-(3-methyl-2,6-dioxo-4-(trifluoromethyl)-3,6-dihydropyrimidin-1(2H)-yl)-N-((1-methylpyrrolidin-3-yl)sulfonyl)benzamide hydrochloride] | 0.1 to 50 | 0.1 to 50 | 0.1 to 50 | 50 to 80 | 80 to 100 | 80 to 100 | 80 to 100 | 80 to 100 | 0.1 to 50 | 50 to 80 | 80 to 100 | 80 to 100 | 0.1 to 50 | 0.1 to 50 | 50 to 80 | 50 to 80 | 0.1 to 50 | 0.1 to 50 | 0.1 to 50 | 0.1 to 50 | herbicidal activity against the weed species (four weed species): good activity across several of the weed species
4 | Cn1c(C(F)(F)F)cc(=O)n(-c2cc(C(=O)NS(=O)(=O)C3(F)CC3)c(Cl)cc2F)c1=O [Example 16, 2-Chloro-4-fluoro-N-((1-fluorocyclopropyl)sulfonyl)-5-(3-methyl-2,6-dioxo-4-(trifluoromethyl)-3,6-dihydropyrimidin-1(2H)-yl)benzamide] | 0.1 to 50 | 0.1 to 50 | 50 to 80 | 50 to 80 | 0.1 to 50 | 0.1 to 50 | 80 to 100 | 80 to 100 | 0.1 to 50 | 0.1 to 50 | 50 to 80 | 80 to 100 | 0.1 to 50 | 0.1 to 50 | 0.1 to 50 | 80 to 100 | 0.1 to 50 | 0.1 to 50 | 0.1 to 50 | 0.1 to 50 | herbicidal activity against the weed species (four weed species): good activity across several of the weed species
5 | Cn1c(C(F)(F)F)cc(=O)n(-c2cc(C(=O)NS(=O)(=O)C3CCOCC3)c(Cl)cc2F)c1=O [Example 1, 2-Chloro-4-fluoro-5-(3-methyl-2,6-dioxo-4-(trifluoromethyl)-3,6-dihydropyrimidin-1(2H)-yl)-N-((tetrahydro-2H-pyran-4-yl)sulfonyl)benzamide] | 0.1 to 50 | 0.1 to 50 | 0.1 to 50 | 0.1 to 50 | 0.1 to 50 | 50 to 80 | 50 to 80 | 80 to 100 | 0.1 to 50 | 50 to 80 | 50 to 80 | 50 to 80 | 0.1 to 50 | 0.1 to 50 | 0.1 to 50 | 0.1 to 50 | 0.1 to 50 | 0.1 to 50 | 0.1 to 50 | 0.1 to 50 | 
